Data taken from BindingDB's records for doi:10.1021/jm00160a049 (1986).

Target: T1, Renin (Homo sapiens, UniProt P00797)
T1 sequence (P00797 whole entry): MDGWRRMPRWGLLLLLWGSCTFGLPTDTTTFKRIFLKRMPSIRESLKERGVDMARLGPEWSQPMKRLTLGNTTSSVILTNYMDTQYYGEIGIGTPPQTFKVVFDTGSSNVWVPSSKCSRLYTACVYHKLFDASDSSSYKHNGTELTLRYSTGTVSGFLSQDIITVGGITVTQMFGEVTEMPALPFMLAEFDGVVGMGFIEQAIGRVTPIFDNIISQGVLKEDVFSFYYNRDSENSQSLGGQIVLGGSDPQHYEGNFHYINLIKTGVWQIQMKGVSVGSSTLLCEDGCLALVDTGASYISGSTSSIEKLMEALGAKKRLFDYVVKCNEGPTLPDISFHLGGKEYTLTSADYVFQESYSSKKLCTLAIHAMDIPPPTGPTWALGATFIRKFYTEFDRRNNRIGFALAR
Test: ChEBML_195744
Source text: Inhibition of human plasma renin

## CC[C@H](C)[C@H](NC(=O)[C@@H](C[C@H](O)[C@H](CC(C)C)NC(=O)[C@H](Cc1c[nH]cn1)N(C)C(=O)[C@H](Cc1ccccc1)NC(=O)[C@@H]1CCCN1C(=O)OC(C)(C)C)C(C)C)C(=O)NCc1ccccn1 [2-(1-{[1-(2-Hydroxy-1-isobutyl-5-methyl-4-{2-methyl-1-[(pyridin-2-ylmethyl)-carbamoyl]-butylcarbamoyl}-hexylcarbamoyl)-2-(3H-imidazol-4-yl)-ethyl]-methyl-carbamoyl}-2-phenyl-ethylcarbamoyl)-pyrrolidine-1-carboxylic acid tert-butyl ester]
  IC50: 0.65 nM
